In US20150141485A1, “PROGNOSIS AND TREATMENT OF LUNG CANCER USING miRNA-135b” (NATIONAL CHENG KUNG UNIVERSITY, priority 2013, published 2015):

Tests used:
[1] = test system: NF-κB binding site within the miR-135b promoter; assay: Chromatin immunoprecipitation (ChIP) with anti-p65; type: cell-based; conditions: 6 hours stimulation
Procedure: The cells were treated with indicated amounts of 5-aza-2′-CdR (upper panel) for 4 days or TNF-α (lower panel) for 6 hours before being subjected to chromatin immunoprecipitation (ChIP) with anti-p65 antibody and specific primers.
CL1-0 and H1299 cells were fixed with 1% formaldehyde and blocked by 125 mM glycine. The cells were resuspended in cell lysis buffer (5 mM HEPES, 85 mM KCl, 0.5% Triton X-100, 1 mM DTT, 1 mM PMSF, pH 8.0), followed by nucleic lysis buffer (50 mMTris-HCl, 10 mM EDTA, 1% SDS, 1 mM DTT, and protease inhibitor (Roche Applied Science, Mannheim, Germany)). The cell lysate was sonicated and clarified by centrifugation. The supernatant was diluted with protein G beads at 4° C. to pre-clear the solution Immunoprecipitation with anti-RelA (Abcam, Cambridge, UK) was performed at 4° C. overnight. DNA-protein complexes were than incubated with protein G agarose beads at 4° C. with constant rotation for 2 hours. Following immunoprecipitation, the beads were washed with a low-salt wash buffer, a high-salt wash buffer, a LiCl wash buffer, and, finally, a TE buffer. The immunoprecipitated complexes were eluted in a buffer containing 10 mM Tris pH 8.0, 300 mM NaCl. 5 mM EDTA, and 0.5% SDS at room temperature. The samples were then treated with proteinase K for 1 hour, followed by RNAse A. Next, the DNA was purified by phenol/chloroform extraction. […]

[2] = test system: H1299 cells; assay: Real-time RT-PCR of miR-135b; type: cell-based; conditions: single treatment
Procedure: Cells were treated with or without 5-aza-2′-CdR for 4 days and re-seeded for TNF-α stimulation for 6 hours. Total RNA was harvested, and miR-135b expression was analyzed. Mean±s.d. is shown, *P<0.05; **P<0.005 by Student's t-test.
(§1) Cells were seeded at concentration of 1×10^5 for treatment with 5-aza-2′-CdR (R&D Systems INC., MN, USA) for 96 hours. For TNF-α (PeproTech, Rocky Hill. N.J.) stimulation, 1×10^6 cells were seeded for 24 hours and treated with different amounts of TNF-α for 6 hours.
(§2) Total RNA was isolated using TRIZOL reagent (Invitrogen, Carisbad, Calif.) according to the standard protocol. The mature miR-135b and endogenous control U6B were analyzed using TaqMan Micro RNA Assay (Applied Biosystems, Foster City, Calif.). Briefly, total RNA was reverse-transcribed via SuperScipt-III Reverse Transcriptase (Invitrogen, Carlsbad, Calif.). The cDNA was amplied with TaqMan 2× Universal Master Mix (Applied Biosystems), and miRNA-specific real-time PCR was performed using an ABI 7500 real-time PCR system.

[3] = test system: CL1-5-F4 cells; assay: Real-time RT-PCR of miR-135b; type: cell-based, human; conditions: 6 hours
Procedure: CL1-5-F4 cells were treated with different concentrations of TNF-α with or without BAY-117082 (5 or 10 μM) for 6 hours. Total RNA was harvested, and miR-135b expression was analyzed and analysis by real-time RT-PCR. Mean±s.d. is shown, *P<0.05; **P<0.005 by Student's t-test.
as §1, §2

[4] = test system: miR-135b expression; assay: Real-time RT-PCR of miR-135b after DNA demethylation; type: cell-based; conditions: cancer cells treated 4 days
Procedure: Cells were treated with different doses of 5-aza-2′-CdR (5′-aza) for 4 days, and total RNA was harvested for real time RT-PCR. Data are expressed as the mean±s.d.
as §1, §2

[5] = test system: LEMD1 mRNA; assay: LEMD1 mRNA expression after DNA demethylation; type: cell-based; conditions: lung cancer cell lines
Procedure: as §1

[6] = test system: CL1-5-F4 cells; assay: Transwell invasion assay; type: cell-based, human; conditions: CL1-5-F4 cells stably expressing sponge vs control sponge
Procedure: CL1-5-F4 and Hop-62 cells were transfected with scramble (NC) of miR-135b-specific antagomir (Antago-135b) for 48 hours and the subjected to migration assays (FIG. 2d) and invasion assays (FIG. 2e) as described above. *P<0.05;**P<0.005 by Student's t-test.
CL1-5-F4 cells transfected with plasmids expressing either control or miR-135b sponges were analyzed using in vitro invasion assay. The average number of invading cells obtained in the transwell invasion assay is presented (n=3).
Transwell chambers ([…], BD Falcon, Franklin Lakes, N.J.) were coated with the appropriate amount of Matrigel (BD Biosciences, San Jose, Calif.). Next, 2.5×10^4 cells were suspended in NuSerum-containing media (Gibco BRL, Grand Island N.Y., USA), seeded in the chamber and cultured, Cells that invaded the chamber from top to bottom were fixed with methanol and stained with a solution of propidium iodine (Sigma-Aldrich, St. Louis, Mo.). The propidiumiodine-positive signal was quantified using Analytical Imaging Station software package. Each sample was assayed in triplicate.

[7] = test system: CL1-5-F4 cells; assay: Lung metastasis after intravenous injection of sponge-expressing cells; type: in vivo; conditions: SCID mice, i.v. sponge-producing CL1-5-F4 cells, 6 weeks, P=0.0126
Source text: CL-5-F4 cells stably expressing control sponge or miR-135b sponge were intravenously injected into SCID mice (n=8). Representative pictures of murine whole lung (left) and H&E staining of lung sections (right) are presented.
Lung tumor nests in each group were examined and counted using a microscope (n=8); Mean±s.e.m. is shown,*P<0.05 by Student's t-test.
Animals were housed in a specific-pathgen-free environment in the animal facility of the Institute of Biomedical Sciences, Academia Sinica. All experimental procedures were in compliance with the Academia Sinica IACUC and Council of Agriculture Guidebook for the Care and Use of Laboratory Animals. For intravenous injections of the tumor cells, 1×10^6 cells were suspended in 0.1 mL of phosphate-buffered saline (PBS) and injected into lateral tail vein of SCID mice (10 mice per group). […] For the subcutaneous tumor assay, 1×10^6 CL1-0 cells or 2×10^5 H441 cells were subcutaneously injected in 0.1 mL of PBS into male nude mice (n=8 per group) and allowed to grow for 35 days to reach a volume of 50-200 mm^3 Control antagomir (Scramble) or anti-miR-135b antagomir (antago-135) was intravenously injected at a concentration of 10 μM in 0.1 mL of PBS 4 days after the cells were implanted. An example of a miR-135b antagomir is 5′mU(*)mC(*)mAmCmAmUmAmG-mGmAmAmUmGmAmAmAmAmGmCmC(*)mA(*)mU(*)mA(*)(3′-Ch1)3′ (SEQ ID NO:8). […]

TNF-α
association of NF-κB with the miR-135b promoter [1]: confirmed
miR-135b expression [2]: induced miR-135b expression was also observed
miR-135b expression [3]: induced miR-135b expression was also observed

Cc1ccc(S(=O)(=O)/C=C/C#N)cc1 [BAY-117082]
TNF-α-stimulated miR-135b expression ([3]; 5 or 10 μM): negated

Nc1ncn([C@H]2C[C@H](O)[C@@H](CO)O2)c(=O)n1 [5-aza-2′CdR]
miR-135b expression levels [4]: restored
LEMD1 mRNA expression [5]: restored LEND1 mRNA expression in a dose-dependent manner

B1: miR-135b sponge: miR-135-specific sponge carrying seven repeats of the miR-135b binding site (SEQ ID NO:12) (nucleic acid)
DNA: GTCGACTCACATAGGAACTTAAGCCATAATGCTCACATAGGAACTTAAGCCATAATGCTCACATAGGAACTTAAGCCATAATGCTCACATAGGAACTTAAGCCATAATGCTCACATAGGAACTTAAGCCATAATGCTCACATAGGAACTTAAGCCATAATGCTCACATAGGAACTTAAGCCATAATGTCGAC
invasiveness in transwell invasion assay [6]: diminished the invasive
number of tumor nodules developed in the mouse lungs [7]: significantly reduced
